Source: patent publication US20170165240A1, “NEW STRATEGIES FOR TREATING MELANOMA” (Université Libre de Bruxelles, priority 2014, published 2017)
Entries after “also recorded” stand apart in the source; their conditions may differ. Read-outs that look alike come from different tables or passages of the source. One block for each compound: values may come before it.

How the values were obtained:
[1] = test system: MM074-R melanoma cell line; conditions: 10% growth reduction
MM074 melanoma cell line [2] = assay: Cell proliferation, crystal violet assay, MM074; conditions: for IC10: 10% growth reduction
MM043 melanoma cell line [3] = assay: Cell proliferation, crystal violet assay, MM043; conditions: for IC10 / CI (combination index): MM043; for IC10: 10% growth reduction; for CI (combination index): PI3K inhibitor at IC10 in combination with vemurafenib
MM074 melanoma cell line [4] = assay: Apoptosis determination (annexin V), MM074; format: cell-based, human
MM043 melanoma cell line [5] = assay: Apoptosis determination (annexin V), MM043; format: cell-based, human
[6] = test system: key proteins of MAPK and p53/PI3K/AKT pathways; assay: Western blot analysis, MM074 cells; format: cell-based, human; conditions: MM074, Western blotting
Method: (§1) Cells were plated in Petri dishes (3×10^6 cells/dish) in culture medium. […] Then, cells were exposed or not to effectors for 30 minutes or 24 hours. Cells were lysed using a detergent cocktail (M-PER Mammalian Extraction Buffer) supplemented with protease inhibitors (Halt Protease Inhibitor Cocktail) and phosphatase inhibitors (Halt Phosphatase Inhibitor Cocktail) (all from Pierce, Rockford, Ill., USA). Protein concentrations were determined by the BCA Protein Assay (Pierce) using bovine serum albumin as the standard. Equal amounts of extracted proteins (35 μg) were subjected to 10 or 12% SDS-PAGE and electrotransferred onto nitrocellulose membranes using iBlot® Dry Blotting System (Invitrogen, Life Technologies, Gent, Belgium). Immunodetections were performed using antibodies raised against ^V600EBRAF (VE1, 1/1000) (from Spring Bioscience, Pleasanton, Calif., USA), pBRAF (Ser 445) (1/1000), pCRAF (Ser 338) (1/1000), CRAF (1/1000), p110α (C73F8, 1/1000), PTEN (138G6, 1/1000), pAKT (Ser 473) (D9E, 1/500), AKT (40D4, 1/1000), p21 (12D1, 1/1000) and p53 Ser15 (16G8) (all from Cell Signaling Technology, Danvers, Mass., USA), BRAF (F-7, 1/200), pERK (Tyr 204) (E-4, 1/1000), ERK2 (C-14, 1/2000), p53 (DO-1, 1/200) and MDM2 (SMP14, 1/200) (all from Santa Cruz Biotechnology, Santa Cruz, Calif., USA), and MDM4 (8C6, 1/1000), […]-actin (C4, 1/5000) (from Millipore, Temecula, Calif., USA). Peroxidase-labeled anti-rabbit IgG antibody (1/5000) or peroxidase-labeled anti-mouse IgG antibody (1/5000) (both from Amersham Pharmacia Biotech, Roosendaal, The Netherlands) were used as secondary reagents to detect corresponding primary antibodies. […] Immunostaining signals were digitalized with a PC-driven LAS-3000 CCD camera (Fujifilm, Tokyo, Japan), using a software specifically designed for image acquisition (Image Reader, Raytest®, Straubenhardt, Germany). Immunoreactive band intensities were quantified using the software AIDA® Image Analyser 3.45 (Raytest®).

[7] = test system: key proteins of MAPK and p53/PI3K/AKT pathways; assay: Western blot analysis, MM043 cells; format: cell-based, human; conditions: MM043, Western blotting
Method: as §1

[8] = test system: key proteins of MAPK and p53/PI3K/AKT pathways; assay: Western blot analysis, MM074-R cells; format: cell-based, human; conditions: Western blotting, 50 and 75 μM for 24 hours
Method: as §1

MM043 xenografts = assay: Human melanoma xenografts, MM043; format: in vivo, mice
Method: (§2) Mice were injected subcutaneously (right and left flank) with 5×10^6 MM074 (vemurafenib sensitive), MM043 (with intrinsic resistance) or MM074-R cells (with acquired resistance) in 200 μl of 50% Matrigel (from Trevigen, Gaithersburg, Md.) in saline. When tumors reached 200 mm^3, mice were randomized into groups of 8 and daily intraperitoneally injected with vehicle, 45 mg/kg vemurafenib, 50 mg/kg PRIMA-1^Met or vemurafenib plus PRIMA-1^Met. […] Tumor volumes were calculated using the formula (L×W×W)/2 (Ji Z et al., 2013, Clin Cancer Res Off J Am Assoc Cancer Res. 19(16):4383-4391), in which L is the length and W is the width as measured with a vernier calliper.
(§3) The sensitive melanoma cells (MM074) xenografts were used as control. After subcutaneous cell injection, tumor growth was monitored to reach volumes of about 200 mm^3.

MM070 melanoma cell line = assay: Cell proliferation, crystal violet assay, MM070; format: cell-based; conditions: Homo sapiens, V600E, read-out: IC50 (μM) vemurafenib
Method: (§4) Cells were distained under running tap water and subsequently lysed with 0.2% Triton X-100 for 90 minutes (v/v in water).
(§5) The IC50 and IC10 values represent the inhibitory concentrations producing, respectively, 50% and 10% growth reduction and were calculated from dose response curves using GraphPad Prism software (GraphPad Software, La Jolla, Calif., USA).

MM034 melanoma cell line = assay: Cell proliferation, crystal violet assay, MM034; format: cell-based; conditions: Homo sapiens, V600E, read-out: IC50 (μM) vemurafenib
Method: as §4, §5

MM050 melanoma cell line = assay: Cell proliferation, crystal violet assay, MM050; format: cell-based; conditions: Homo sapiens, V600E, read-out: IC50 (μM) vemurafenib
Method: as §4, §5

MM133 melanoma cell line = assay: Cell proliferation, crystal violet assay, MM133; format: cell-based; conditions: Homo sapiens, V600K, read-out: IC50 (μM) vemurafenib
Method: as §4, §5
(§6) CI values between 0.9 and 1.1 indicates an additive effect; values between 0.7 and 0.9, a moderate synergism; values lower than 0.7, a strong synergism; and antagonism is represented by CI values higher than 1.1.

MM032 melanoma cell line = assay: Cell proliferation, crystal violet assay, MM032; format: cell-based; conditions: Homo sapiens, V600E, read-out: IC50 (μM) vemurafenib
Method: as §4, §5, §6

MM029 melanoma cell line = assay: Cell proliferation, crystal violet assay, MM029; format: cell-based; conditions: Homo sapiens, V600K, read-out: IC50 (μM) vemurafenib
Method: as §4, §5, §6

MM054 melanoma cell line = assay: Cell proliferation, crystal violet assay, MM054; format: cell-based; conditions: Homo sapiens, V600E, read-out: IC50 (μM) vemurafenib
Method: as §4, §5, §6

[9] = test system: ERK and AKT phosphorylation; assay: Western blot, ERK and AKT phosphorylation in panel of vemurafenib-resistant lines; format: cell-based, human
Method: Representative Western blots illustrating the evolution of (A) ERK and (B) AKT phosphorylation in melanoma cells exposed to increasing concentrations of vemurafenib (0.1, 1 and 10 μM) for 24 hours. Ratio of phosphorylated protein over total protein were calculated from densitometry evaluation.
Cells were plated in Petri dishes (3×10^6 cells/dish) in culture medium. […] Then, cells were exposed or not to effectors for 30 minutes or 24 hours. Cells were lysed using a detergent cocktail (M-PER Mammalian Extraction Buffer) supplemented with protease inhibitors (Halt Protease Inhibitor Cocktail) and phosphatase inhibitors (Halt Phosphatase Inhibitor Cocktail) (all from Pierce, Rockford, Ill., USA). Protein concentrations were determined by the BCA Protein Assay (Pierce) using bovine serum albumin as the standard. Equal amounts of extracted proteins (35 μg) were subjected to 10 or 12% SDS-PAGE and electrotransferred onto nitrocellulose membranes using iBlot® Dry Blotting System (Invitrogen, Life Technologies, Gent, Belgium). […] Immunostaining signals were digitalized with a PC-driven LAS-3000 CCD camera (Fujifilm, Tokyo, Japan), using a software specifically designed for image acquisition (Image Reader, Raytest®, Straubenhardt, Germany). Immunoreactive band intensities were quantified using the software AIDA® Image Analyser 3.45 (Raytest®).

MM074 xenografts = assay: Human melanoma xenografts, MM074; format: in vivo, mice
Method: as §2, §3

[10] = test system: MM074-R melanoma cell line; assay: cells; conditions: Homo sapiens, read-out: IC50 (μM) vemurafenib
[11] = test system: panel of V600E/K BRAF melanoma cell lines; assay: Cell proliferation and apoptosis in panel of V600E/K BRAF melanoma cell lines; conditions: Homo sapiens
melanoma = conditions: ipilimumab only group, 9 of 15 responders; cited from earlier work
[12] = Homo sapiens, read-out: IC50 (μM) vemurafenib

Compound: O=c1cc(N2CCOCC2)oc2c(-c3ccccc3)cccc12 [LY294002]
IC10 [1]: 5 µM | IC10 (MM074 melanoma cell line [2]; MM074): 5 µM | IC10 (MM043 melanoma cell line [3]): 5 µM | CI (combination index) (MM043 melanoma cell line [3]): 0.56

Compound: COc1ccc(-c2cc3c(C)nc(N)nc3n([C@H]3CC[C@H](OCCO)CC3)c2=O)cn1 [PF-04691502]
apoptosis (annexin V-positive cells) (MM074 melanoma cell line [4]; MM074, PI3K inhibitor at IC10 in combination with vemurafenib, 2 days): increased | apoptosis (annexin V-positive cells) (MM043 melanoma cell line [5]; MM043, PI3K inhibitor at IC10 in combination with vemurafenib, 2 days): significant increase in apoptosis | AKT phosphorylation [6]: inhibited | AKT phosphorylation [7]: inhibited | IC10 [1]: 0.1 µM | IC10 (MM074 melanoma cell line [2]; MM074): 0.1 µM | cell proliferation (MM074 melanoma cell line [2]; MM074, PI3K inhibitor at IC10 in combination with increasing concentrations of vemurafenib): not significantly affected | IC10 (MM043 melanoma cell line [3]): 0.1 µM | CI (combination index) (MM043 melanoma cell line [3]): 0.64

Compound: COCC1(CO)C(=O)C2CCN1CC2 (centres unmarked) [PRIMA-1^Met, 2-hydroxymethyl-2-methoxymethylazabicyclo[2.2.2]octan-3-one]
AKT phosphorylation [6]: inhibition of p110α expression and AKT phosphorylation | PTEN expression [6]: increase in PTEN levels | p110α expression [6]: inhibition of p110α expression and AKT phosphorylation | AKT phosphorylation [7]: inhibited AKT phosphorylation; also recorded: inhibition of p110α expression and AKT phosphorylation | PTEN expression [7]: stimulated PTEN expression; also recorded: increase in PTEN levels | p53 expression / p53 pathway [7]: restored p53 expression; also recorded: activation of the p53 pathway | p110α expression [7]: inhibition of p110α expression and AKT phosphorylation | AKT phosphorylation [8]: decrease of p110α expression and AKT phosphorylation | p21 and PTEN levels [8]: upregulation of p21 and PTEN levels | p53 expression and phosphorylation [8]: dose-dependent increase of p53 expression and phosphorylation | p110α expression [8]: decrease of p110α expression and AKT phosphorylation | mean tumor volume (MM043 xenografts; after 20 days of treatment): 1080 mm^3 | IC10 [1]: 40 µM

IC50 (MM070 melanoma cell line): 0.05 µM | IC50 (MM034 melanoma cell line): 0.1 µM | IC50 (MM050 melanoma cell line): 0.1 µM | IC50 (MM133 melanoma cell line): 2 µM | IC50 (MM032 melanoma cell line): 2 µM | IC50 (MM029 melanoma cell line): 30 µM | IC50 (MM054 melanoma cell line): 40 µM | IC50 [10]: 20 µM | IC50 (MM074 melanoma cell line [2]; [12]): 0.1 µM | IC50 (MM043 melanoma cell line [3]; [12]): 20 µM | IC50 ([11]; read-out: IC50, cell lines found to be resistant): > 10 µM | IC50 ([11]; read-out: IC50, cell lines found to be sensitive): ≤ 2 µM
Compound: CCCS(=O)(=O)Nc1ccc(F)c(C(=O)c2c[nH]c3ncc(-c4ccc(Cl)cc4)cc23)c1F [vemurafenib, N-(3-{[5-(4-chlorophenyl)-1H-pyrrolo[2,3-b]pyridin-3-yl]carbonyl}-2,4-difluorophenyl)propane-1-sulfonamide]
apoptosis (annexin V-positive cells) (MM074 melanoma cell line [4]; MM074, 2 days): induces apoptosis | apoptosis (annexin V-positive cells) (MM043 melanoma cell line [5]; MM043, 2 days): no apoptosis is detected | AKT phosphorylation [6]: strongly inhibited | PTEN expression [6]: concentration-dependent increase of PTEN expression | ERK phosphorylation (pERK) ([6]; 24 hours): similarly inhibited | AKT phosphorylation [7]: neither AKT phosphorylation nor PTEN expression were affected | PTEN expression [7]: neither AKT phosphorylation nor PTEN expression were affected | ERK phosphorylation (pERK) ([7]; 24 hours): similarly inhibited | pERK ([9]; all resistant lines, 24 hours): similarly inhibited in a concentration-dependent manner | pAKT ([9]; resistant lines MM032, MM043 and MM133, 24 hours): unaffected in three out of five resistant lines | average tumor volume (MM074 xenografts; 28 days, 45 mg/kg daily intraperitoneally): ~190 mm3 | tumor growth (MM074 xenografts; as of day 4 after starting treatment): inhibited tumor growth | tumor growth (MM043 xenografts; 45 mg/kg vemurafenib and/or 50 mg/kg PRIMA-1^Met daily IP): did not significantly affected tumor growth | mean tumor volume (MM043 xenografts; after 28 days of treatment): ~1130 mm^3

Compound: ipilimumab: an antibody raised against CTLA-4 molecule on T-cells
responders who maintained an objective response for at least 2 years (melanoma): 60%
